# According to EP1296974B1, “2-CYANOPYRROLIDINE DERIVATIVES AND THEIR USE AS MEDICAMENTS” (NOVARTIS AG, priority 2000, dated 2001):
# Counter-ions that a name gives are not always drawn.
# Legend:
# DPP-IV = target: T1, DPP-IV (Homo sapiens, UniProt P27487); assay: Caco-2 DPP-IV Assay (inhibition of DPP-IV activity from human colonic carcinoma cell extracts); type: biochemical; details: Caco-2 cell extract, substrate H-Alanine-Proline-pNA, 8-point dose-response curves
# T1 construct: The assay is conducted by adding 20 µg solubilized Caco-2 protein; host or cells: Caco-2 (differentiated), NP-40 solubilized cell extract
# Procedure: The human colonic carcinoma cell line Caco-2 was obtained from the American Type Culture Collection (ATCC HTB 37). Differentiation of the cells to induce DPP-IV expression was accomplished as described by Reisher, et al. in an article entitled "Increased expression of intestinal cell line Caco-2" in Proc. Natl. Acad. Sci., Vol. 90, pgs. […] Cell extract is prepared from cells solubilized in 10mM Tris HCI, 0.15 M NaCl, 0.04 t.i.u.aprotinin, 0.5% nonidet-P40, pH 8.0, which is centrifuged at 35,000 g for 30 min. at 4 °C. to remove cell debris. The assay is conducted by adding 20 µg solubilized Caco-2 protein, diluted to a final volume of 125 µl in assay buffer (25 mM Tris HCI pH 7.4, 140mM NaCl, 10 mM KCI, 1% bovine serum albumin) to microtiter plate wells. After a 60 min. incubation at room temperature, the reaction is initiated by adding 25 µl of 1 mM substrate (H-Alanine-Proline-pNA; pNA is p-nitroaniline). […] A standard curve of free p-nitroaniline is generated using 0-500 µM solutions of free pNA in assay buffer. The curve generated is linear and is used for interpolation of substrate consumption (catalytic activity in nmoles substrate cleaved /min).
# The potency of the test compounds as DPP-IV inhibitors, expressed as IC50, is calculated from 8-point, dose-response curves using a 4-parameter logistic function.
# human plasma DPP-IV = target: T2, human plasma DPP-IV (Homo sapiens, UniProt P27487); assay: DPP-IV activity in human plasma (modified Kubota assay); type: biochemical; details: substrate H-Glycine-Proline-AMC, 8-point dose-response curves
# T2 construct: from tissue; host or cells: human plasma
# Procedure: (§1) Briefly, 5 µl of plasma are added to 96-well flat-bottom micortiter plates (Falcon), followed by the addition of 5 µl of 80 mM MgCl2 in incubation buffer (25 mMHEPES, 140 mM NaCl, 1% RIA-grade BSA, pH 7.8). After a 60 min. incubation at room temperature, the reaction is initiated by the addition of 10 µl of incubation buffer containing 0.1 mM substrate (H-Glycine-Proline-AMC; AMC is 7-amino-4-methylcoumarin). The plates are covered with aluminum foil (or kept in the dark) and incubated at room temperature for 20 min. […] A fluorescence-concentration curve of free AMC is generated using 0-50 µM solutions of AMC in assay buffer. The curve generated is linear and is used for interpolation of substrate consumption (catalytic activity in nmoles substrate cleaved/min). As with the previous assay, the potency of the test compounds as DPP-IV inhibitors, expressed as IC50, is calculated from 8-point, dose-response curves using a 4 parameter logistic function.
# rat plasma DPP-IV = target: T3, rat plasma DPP-IV (Rattus norvegicus, UniProt P14740); assay: DPP-IV activity in rat plasma (modified Kubota assay); type: biochemical; details: substrate H-Glycine-Proline-AMC, 8-point dose-response curves
# T3 construct: from tissue; host or cells: rat plasma
# Procedure: as §1
# plasma DPP-IV = target: T4, plasma DPP-IV (Rattus norvegicus, UniProt P14740); assay: Plasma DPP-IV activity after oral dosing in insulin resistant rats (oral glucose challenge study); type: in vivo, Male Sprague-Dawley rats; details: 10 µmol/kg orally, ten minutes prior to glucose (1 g/kg p.o.), n=7-8, read-out: inhibition of plasma DPP-IV activity during the study
# T4 construct: from tissue; host or cells: plasma of male Sprague-Dawley rats dosed orally (in vivo / ex vivo read-out)
# Excerpt: (§2) More specifically, for example, the compounds of formula 1, and their corresponding pharmaceutically acceptable acid addition salts, improve early insulin response to an oral glucose challenge and, therefore, are useful in treating non-insulin-dependent diabetes mellitus. The ability of the compounds of formula I, and their corresponding pharmaceutically acceptable acid addition salts, to improve early insulin response to an oral glucose challenge may be measured in insulin resistant rats according to the following method:
# (§3) Male Sprague-Dawley rats that had been fed a high fat diet (saturated fat = 57% calories) for 2-3 weeks were fasted for approximately 2 hours on the day of testing, divided into groups of 7-10, and dosed orally with 10 µmol/kg of test compound in carboxymethylcellulose. […] Blood samples, obtained at various time-points from chronic jugular vein catheters, were analyzed for plasma glucose concentration. Data are expressed as % decrease of the area under the plasma glucose curve compared to vehicle-treated control animals.
# [1] = Oral glucose challenge in insulin resistant high fat fed rats: plasma glucose excursion; type: in vivo, Male Sprague-Dawley rats; details: 10 µmol/kg orally; glucose 1 g/kg p.o.; % decrease of area under the plasma glucose curve compared to vehicle-treated control animals
# Excerpt: as §2, §3
# T3 sequence (P14740 37-767 limits assumed): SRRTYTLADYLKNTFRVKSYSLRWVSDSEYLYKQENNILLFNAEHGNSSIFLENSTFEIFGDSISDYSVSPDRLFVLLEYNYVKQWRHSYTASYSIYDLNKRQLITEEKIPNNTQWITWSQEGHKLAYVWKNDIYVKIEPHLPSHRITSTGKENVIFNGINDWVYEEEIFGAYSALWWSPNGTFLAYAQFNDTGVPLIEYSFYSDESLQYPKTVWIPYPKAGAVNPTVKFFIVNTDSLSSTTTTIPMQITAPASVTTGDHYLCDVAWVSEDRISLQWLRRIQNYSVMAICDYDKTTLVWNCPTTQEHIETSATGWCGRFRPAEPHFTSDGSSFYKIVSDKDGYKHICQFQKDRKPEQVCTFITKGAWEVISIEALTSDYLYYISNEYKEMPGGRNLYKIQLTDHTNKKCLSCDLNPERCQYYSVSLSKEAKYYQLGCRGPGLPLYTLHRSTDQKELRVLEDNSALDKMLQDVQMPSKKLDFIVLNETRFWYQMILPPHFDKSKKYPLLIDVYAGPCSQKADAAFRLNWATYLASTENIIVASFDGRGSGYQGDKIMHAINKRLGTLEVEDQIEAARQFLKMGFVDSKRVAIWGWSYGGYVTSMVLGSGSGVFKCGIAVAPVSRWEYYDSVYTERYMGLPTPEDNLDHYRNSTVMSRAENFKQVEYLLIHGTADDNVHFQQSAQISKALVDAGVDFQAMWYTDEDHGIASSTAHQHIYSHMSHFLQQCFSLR
# T2 sequence (P27487 39-766 limits assumed): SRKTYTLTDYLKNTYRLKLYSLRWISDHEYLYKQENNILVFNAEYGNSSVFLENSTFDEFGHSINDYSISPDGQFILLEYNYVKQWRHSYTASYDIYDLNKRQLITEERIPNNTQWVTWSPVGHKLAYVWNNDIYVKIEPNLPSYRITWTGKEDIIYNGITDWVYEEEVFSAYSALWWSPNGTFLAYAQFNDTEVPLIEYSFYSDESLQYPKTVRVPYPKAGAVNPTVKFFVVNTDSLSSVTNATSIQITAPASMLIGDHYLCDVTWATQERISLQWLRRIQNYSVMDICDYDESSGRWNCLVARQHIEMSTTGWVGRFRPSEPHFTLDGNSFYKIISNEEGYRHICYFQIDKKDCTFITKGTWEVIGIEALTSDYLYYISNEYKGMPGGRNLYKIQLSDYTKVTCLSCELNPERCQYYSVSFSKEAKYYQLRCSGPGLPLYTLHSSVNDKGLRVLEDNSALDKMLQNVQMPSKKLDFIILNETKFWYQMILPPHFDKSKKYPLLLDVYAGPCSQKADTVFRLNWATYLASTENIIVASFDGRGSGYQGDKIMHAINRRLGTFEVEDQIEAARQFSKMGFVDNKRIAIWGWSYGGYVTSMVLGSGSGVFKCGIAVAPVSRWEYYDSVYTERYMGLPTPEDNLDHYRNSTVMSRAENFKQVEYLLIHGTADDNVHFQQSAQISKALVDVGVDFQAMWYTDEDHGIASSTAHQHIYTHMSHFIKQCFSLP
# T1 sequence (P27487 whole entry): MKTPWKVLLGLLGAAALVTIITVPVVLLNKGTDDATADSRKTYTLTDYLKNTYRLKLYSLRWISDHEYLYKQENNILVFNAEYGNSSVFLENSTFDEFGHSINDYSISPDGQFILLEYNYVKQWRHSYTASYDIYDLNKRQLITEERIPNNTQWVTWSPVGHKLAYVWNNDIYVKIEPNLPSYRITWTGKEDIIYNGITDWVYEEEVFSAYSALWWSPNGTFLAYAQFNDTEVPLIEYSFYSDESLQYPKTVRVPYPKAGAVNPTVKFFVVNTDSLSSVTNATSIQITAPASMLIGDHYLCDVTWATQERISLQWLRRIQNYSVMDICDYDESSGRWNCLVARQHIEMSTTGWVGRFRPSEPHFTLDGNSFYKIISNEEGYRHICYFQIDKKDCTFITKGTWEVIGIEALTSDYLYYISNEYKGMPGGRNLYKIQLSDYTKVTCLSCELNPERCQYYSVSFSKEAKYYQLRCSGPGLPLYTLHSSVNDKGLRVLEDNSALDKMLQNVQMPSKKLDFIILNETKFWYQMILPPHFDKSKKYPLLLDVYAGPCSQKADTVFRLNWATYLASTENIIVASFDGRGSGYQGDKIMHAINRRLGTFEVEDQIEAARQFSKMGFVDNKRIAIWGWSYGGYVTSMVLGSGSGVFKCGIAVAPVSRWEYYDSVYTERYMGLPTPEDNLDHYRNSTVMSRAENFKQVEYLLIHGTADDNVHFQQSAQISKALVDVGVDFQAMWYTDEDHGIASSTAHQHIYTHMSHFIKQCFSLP
# T4 sequence (P14740 37-767 limits assumed): as the sequence (P14740 37-767 limits assumed) above
SMILES,IC50 (DPP-IV) [nM],IC50 (human plasma DPP-IV) [nM],IC50 (rat plasma DPP-IV) [nM],inhibition at 10 µmol/kg (plasma DPP-IV) [%],Decrease of plasma glucose excursion at 10 µmovkg (p=0.01) [1] [%]
"N#Cc1ccc(NC2CCC(NCC(=O)N3CCC[C@H]3C#N)CC2)cc1 (stereo partly drawn) [Ex. 2W, 1-[[[4-[(4-cyanophenyl)amino]cyclohexyl]amino]acetyl]-2-cyano-(S)-pyrrolidine, dihydrochloride]",13,19,7,–,–
"CC(C)(C)C(=O)NC1CCC(NCC(=O)N2CCC[C@H]2C#N)CC1 (stereo partly drawn) [Ex. 2U, 1-[[[4-[(2,2-dimethyl-1-oxopropyl)amino]cyclohexyl]amino]acetyl]-2-cyano-(S)-pyrrolidine, monohydrochloride]",39,27,14,–,–
"N#C[C@@H]1CCCN1C(=O)CNC1CCN(S(=O)(=O)c2ccc(Cl)cc2)CC1 [Ex. 3, 1-[[[1-[(4-Chlorophenyl)sulfonyl]-4-piperidinyl]amino]acetyl]-2-cyano-(S)-pyrrolidine, monohydrochloride]",124,204,107,–,–
"N#C[C@@H]1CCCN1C(=O)CNC1CCC(Nc2ccnc(Cl)n2)CC1 (stereo partly drawn) [Ex. 2S, 1-[[[4-[(2-chloro-4-pyrimidinyl)amino]cyclohexyl]amino]acetyl]-2-cyano-(S)-pyrrolidine, dihydrochloride]",3,4,2,–,–
"N#C[C@@H]1CCCN1C(=O)CNC1CCC(Oc2ccc(C(F)(F)F)cc2)CC1 (stereo partly drawn) [Ex. 2EE, 1-[[[4-[4-(trifluoromethyl)phenoxy]cyclohexyl]amino]acetyl]-2-cyano-(S)-pyrrolidine, monohydrochloride]",23,150,46,–,–
"N#C[C@@H]1CCCN1C(=O)CNC1CCC(NS(=O)(=O)c2ccccc2)CC1 (stereo partly drawn) [Ex. 2M, 1-[[[4-[(phenylsulfonyl)amino]cyclohexyl]amino]acetyl]-2-cyano-(S)-pyrrolidine, monohydrochloride]",34,10,6,–,–
"N#C[C@@H]1CCCN1C(=O)CNC1CCC(Nc2nc3cc(Cl)ccc3s2)CC1 (stereo partly drawn) [Ex. 2Y, 1-[[[4-[(5-chloro-2-benzothiazolyl)amino]cyclohexyl]amino]acetyl]-2-cyano-(S)-pyrrolidine, dihydrochloride]",12,124,37,–,–
"CC(C)(CNc1ccc(Cl)cn1)NCC(=O)N1CCC[C@H]1C#N [Ex. 1, 1-[[[2-[(5-Chloro-2-pyridinyl)amino]-1,1-dimethylethyl]amino]acetyl]-2-cyano-(S)-pyrrolidine, monohydrochloride]",2,30,6,–,–
"N#C[C@@H]1CCCN1C(=O)CNC1CCC(NC(=O)c2ccccc2)CC1 (stereo partly drawn) [Ex. 2N, 1-[[[4-(benzoylamino)cyclohexyl]amino]acetyl]-2-cyano-(S)-pyrrolidine]",5,10,5,80,39
